ChEMBL document CHEMBL1201862, “PubChem BioAssay data set” (2004)
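The compound was tested at five concentrations on cells cultured in 96-well plates, with a 48-hour exposure period. GI50 = concentration required for 50% inhibition of growth.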 Active and inactive are the calls of the source. Cut-off read from the data, not from the text of the source: active = GI50 up to about 1.1 µM and inactive = higher.

Assays:
Assay in all cases: growth of human tumour cells (NCI), 48 h
ACHN = system: ACHN
CCRF-CEM = system: CCRF-CEM
COLO 205 = system: COLO 205
EKVX = system: EKVX
HCT-116 = system: HCT-116
HOP-92 = system: HOP-92
IGROV-1 = system: IGROV-1
M19-MEL = system: M19-MEL
NCI-H23 = system: NCI-H23
NCI-H460 = system: NCI-H460
OVCAR-5 = system: OVCAR-5
OVCAR-8 = system: OVCAR-8
RXF 393 = system: RXF 393
SK-OV-3 = system: SK-OV-3
TK-10 = system: TK-10
UACC-62 = system: UACC-62
Malme-3M = system: Malme-3M
CAKI-1 = system: CAKI-1
BT-549 = system: BT-549
NCI/ADR-RES = system: NCI/ADR-RES

SMILES | GI50 (ACHN) | GI50 (CCRF-CEM) | GI50 (COLO 205) | GI50 (EKVX) | GI50 (HCT-116) | GI50 (HOP-92) | GI50 (IGROV-1) | GI50 (M19-MEL) | GI50 (NCI-H23) | GI50 (NCI-H460) | GI50 (OVCAR-5) | GI50 (OVCAR-8) | GI50 (RXF 393) | GI50 (SK-OV-3) | GI50 (TK-10) | GI50 (UACC-62) | GI50 (Malme-3M) | GI50 (CAKI-1) | GI50 (BT-549) | GI50 (NCI/ADR-RES)
COc1cc(Br)c(C2OCCCO2)cc1OCc1ccccc1 | 37.9 µM (inactive) | 94.2 µM (inactive) | > 100 µM (inactive) | > 100 µM (inactive) | 39.7 µM (inactive) | 9.86 µM (inactive) | > 100 µM (inactive) | > 100 µM (inactive) | 85.5 µM (inactive) | 55.7 µM (inactive) | > 100 µM (inactive) | > 100 µM (inactive) | 64 µM (inactive) | > 100 µM (inactive) | > 100 µM (inactive) | 73.5 µM (inactive) | – | – | – | –
O=C1N/C(=C\[N+](=O)[O-])c2ccccc21 | > 100 µM (inactive) | > 100 µM (inactive) | > 100 µM (inactive) | > 100 µM (inactive) | > 100 µM (inactive) | > 100 µM (inactive) | > 100 µM (inactive) | > 100 µM (inactive) | > 100 µM (inactive) | > 100 µM (inactive) | > 100 µM (inactive) | > 100 µM (inactive) | > 100 µM (inactive) | > 100 µM (inactive) | > 100 µM (inactive) | > 100 µM (inactive) | > 100 µM (inactive) | – | – | –
COc1ccc(/C=C/C(=O)c2sc(NC(=S)NC(=O)c3ccc(Cl)cc3)nc2C)cc1OC | 59.6 µM (inactive) | 26.2 µM (inactive) | 37.2 µM (inactive) | 66.8 µM (inactive) | 51.4 µM (inactive) | – | 43.1 µM (inactive) | 53.2 µM (inactive) | 33.5 µM (inactive) | 84.7 µM (inactive) | > 100 µM (inactive) | 43.9 µM (inactive) | 95.5 µM (inactive) | > 100 µM (inactive) | > 100 µM (inactive) | 18.4 µM (inactive) | 37.2 µM (inactive) | 75.9 µM (inactive) | – | –
NC(=S)N/N=C1/C(=O)N(c2ccccc2)C(=O)C1C(=O)Nc1ccccc1 (stereo unspecified) | > 100 µM (inactive) | – | > 100 µM (inactive) | > 100 µM (inactive) | > 100 µM (inactive) | > 100 µM (inactive) | > 100 µM (inactive) | > 100 µM (inactive) | > 100 µM (inactive) | > 100 µM (inactive) | > 100 µM (inactive) | > 100 µM (inactive) | > 100 µM (inactive) | > 100 µM (inactive) | > 100 µM (inactive) | > 100 µM (inactive) | > 100 µM (inactive) | > 100 µM (inactive) | – | –
COc1ccc(C(C#N)NNc2nc(C)cc(O)n2)cc1OC (stereo unspecified) | > 100 µM (inactive) | > 100 µM (inactive) | > 100 µM (inactive) | – | > 100 µM (inactive) | > 100 µM (inactive) | > 100 µM (inactive) | > 100 µM (inactive) | > 100 µM (inactive) | > 100 µM (inactive) | > 100 µM (inactive) | > 100 µM (inactive) | > 100 µM (inactive) | > 100 µM (inactive) | > 100 µM (inactive) | > 100 µM (inactive) | > 100 µM (inactive) | > 100 µM (inactive) | – | –
COc1cc(CNc2nc3ccc(C(F)(F)F)cc3nc2-c2ccccc2)cc(OC)c1OC | – | 15.3 µM (inactive) | 38.5 µM (inactive) | 11.9 µM (inactive) | 15.4 µM (inactive) | – | 67.3 µM (inactive) | 46.2 µM (inactive) | 27.9 µM (inactive) | 34.1 µM (inactive) | > 100 µM (inactive) | 47.5 µM (inactive) | – | 7.18 µM (inactive) | 27.1 µM (inactive) | 93.1 µM (inactive) | 29.6 µM (inactive) | 14.3 µM (inactive) | – | –
CN1CC(=O)N2Cc3ccccc3-n3cccc3C2C1 (stereo unspecified) | > 100 µM (inactive) | – | > 100 µM (inactive) | > 100 µM (inactive) | > 100 µM (inactive) | – | > 100 µM (inactive) | > 100 µM (inactive) | > 100 µM (inactive) | > 100 µM (inactive) | > 100 µM (inactive) | > 100 µM (inactive) | > 100 µM (inactive) | > 100 µM (inactive) | > 100 µM (inactive) | > 100 µM (inactive) | > 100 µM (inactive) | > 100 µM (inactive) | – | –
CC(=O)O[C@H]1CCC2[C@@H]3CCC4Nc5c(cnn5-c5ccccc5)C[C@]4(C)C3CC[C@@]21C (stereo partly specified) | 14.6 µM (inactive) | 7.08 µM (inactive) | 14.5 µM (inactive) | 3.3 µM (inactive) | 14.3 µM (inactive) | – | 20.7 µM (inactive) | 11.7 µM (inactive) | 4.83 µM (inactive) | 15.8 µM (inactive) | 17.4 µM (inactive) | 18.2 µM (inactive) | 5.65 µM (inactive) | 18.7 µM (inactive) | 19.2 µM (inactive) | 10.4 µM (inactive) | 11.8 µM (inactive) | 3.2 µM (inactive) | – | –
CCCN(CCCCC(NC(C)=O)C(=O)NCc1ccccc1)C(=O)NCCCl (stereo unspecified) | > 100 µM (inactive) | > 100 µM (inactive) | > 100 µM (inactive) | > 100 µM (inactive) | 59.2 µM (inactive) | > 100 µM (inactive) | – | > 100 µM (inactive) | > 100 µM (inactive) | > 100 µM (inactive) | – | > 100 µM (inactive) | > 100 µM (inactive) | – | > 100 µM (inactive) | > 100 µM (inactive) | > 100 µM (inactive) | > 100 µM (inactive) | – | –
COc1cc2cc3c4c(cc(OC)c(OC)c4c2cc1OC)CCN3C(=O)CCC(=O)NCCCN(C)C | > 100 µM (inactive) | 29.2 µM (inactive) | 32.6 µM (inactive) | 72.1 µM (inactive) | 43.1 µM (inactive) | 10 µM (inactive) | > 100 µM (inactive) | 22.8 µM (inactive) | > 100 µM (inactive) | 33.1 µM (inactive) | – | > 100 µM (inactive) | > 100 µM (inactive) | 46.2 µM (inactive) | > 100 µM (inactive) | 47.6 µM (inactive) | 64.7 µM (inactive) | > 100 µM (inactive) | – | –
Cc1cc(C)nc(NC(=O)c2ccc(Br)s2)c1 | > 100 µM (inactive) | 3.37 µM (inactive) | 10.6 µM (inactive) | 76.7 µM (inactive) | 10.7 µM (inactive) | > 100 µM (inactive) | > 100 µM (inactive) | – | 77.6 µM (inactive) | > 100 µM (inactive) | 17.7 µM (inactive) | > 100 µM (inactive) | > 100 µM (inactive) | > 100 µM (inactive) | > 100 µM (inactive) | 95.3 µM (inactive) | > 100 µM (inactive) | > 100 µM (inactive) | > 100 µM (inactive) | > 100 µM (inactive)
COc1ccc2c(c1)C(CCN)C(=O)N2 (stereo unspecified) | > 100 µM (inactive) | > 100 µM (inactive) | > 100 µM (inactive) | > 100 µM (inactive) | > 100 µM (inactive) | > 100 µM (inactive) | > 100 µM (inactive) | > 100 µM (inactive) | > 100 µM (inactive) | > 100 µM (inactive) | > 100 µM (inactive) | > 100 µM (inactive) | – | > 100 µM (inactive) | > 100 µM (inactive) | > 100 µM (inactive) | > 100 µM (inactive) | > 100 µM (inactive) | – | –
O=S(=O)(/C=C/CS(=O)(=O)c1ccccc1)c1ccccc1 | 53.3 µM (inactive) | 36.1 µM (inactive) | 36.1 µM (inactive) | 41.6 µM (inactive) | 19.1 µM (inactive) | 45 µM (inactive) | 39.8 µM (inactive) | 36.1 µM (inactive) | 19.2 µM (inactive) | 21.9 µM (inactive) | 47.1 µM (inactive) | 16.9 µM (inactive) | 26.9 µM (inactive) | 29.3 µM (inactive) | 43.7 µM (inactive) | 21.5 µM (inactive) | 29.6 µM (inactive) | – | – | –
c1ccc2c(c1)Nc1ccccc1[P+]21c2ccccc2Nc2ccccc21 | 1.86 µM (inactive) | 0.158 µM (active) | 0.048 µM (active) | 0.312 µM (active) | 0.151 µM (active) | 0.123 µM (active) | 0.27 µM (active) | – | 0.175 µM (active) | 0.146 µM (active) | 0.281 µM (active) | 0.368 µM (active) | 0.303 µM (active) | 0.267 µM (active) | 0.581 µM (active) | 0.143 µM (active) | 0.207 µM (active) | 1.61 µM (inactive) | 0.153 µM (active) | 69.2 µM (inactive)
CCCCCCc1cc2cc(C(=O)Nc3ccccc3)c(=N)oc2cc1O | 3.44 µM (inactive) | 3.47 µM (inactive) | 38.4 µM (inactive) | 3.29 µM (inactive) | 2.5 µM (inactive) | 3.25 µM (inactive) | 2.92 µM (inactive) | – | 2.36 µM (inactive) | 3.24 µM (inactive) | > 83.6 µM (inactive) | 3.93 µM (inactive) | 5.56 µM (inactive) | 3.34 µM (inactive) | 6.78 µM (inactive) | 2.26 µM (inactive) | 1.98 µM (inactive) | 4.58 µM (inactive) | 9.25 µM (inactive) | 3.27 µM (inactive)
COc1cc(CNC2c3cc4c(cc3C(c3cc(OC)c(OC)c(OC)c3)[C@H]3C(=O)OCC23)OCO4)cc(OC)c1OC (stereo partly specified) | 0.42 µM (active) | 0.35 µM (active) | 0.18 µM (active) | – | 0.245 µM (active) | 0.528 µM (active) | 1.1 µM (active) | 1.28 µM (inactive) | 0.267 µM (active) | 0.29 µM (active) | > 100 µM (inactive) | 0.247 µM (active) | 0.308 µM (active) | 0.385 µM (active) | > 100 µM (inactive) | 0.156 µM (active) | > 100 µM (inactive) | – | – | –
